Measurements reported in patent publication US8362018B2, “Substituted imidazo[1,2-a]pyrazine compounds useful for the treatment of viral infections” (Biofocus DPI, Ltd., priority 2007, dated 2013).

Test system: HCV replicon
Assay: anti-viral assay (EC50), Table 13
Type: cell-based
Conditions: Hepatitis C virus, anti-viral assays
From the text: The ability of a compound to inhibit HCV replication can be measured in vitro or using animal models using models and assays well known to those of skill in the art (e.g. Pietschmann et al, Clin Liver Dis. 7(1)c23-43, 2003). In vitro techniques for measuring the ability of a compound to inhibit HCV replication involve using HCV or an HCV replicon. Because HCV is difficult to grow in culture, particular in vitro techniques employ an HCV replicon.
An HCV replicon is an RNA molecule able to autonomously replicate in a cultured cell, such as Huh7. The HCV replicon expresses the HCV derived components of the replication machinery and contains cis-elements required for replication in a cultured cell. […]

| Compound | EC50 [µM] |
| --- | --- |
| Oc1ccc(-c2cnc3c(NCCc4ccncc4)nccn23)cc1 [Compound 2] | 1 to 20 |
| OCc1ccc(-c2cnc3c(NCCc4ccncc4)nccn23)cc1 [Compound 3] | > 20 |
| CS(=O)(=O)Nc1cccc(-c2cnc3c(NCCc4ccncc4)nccn23)c1 [Compound 4] | 1 to 20 |
| Oc1ccc(-c2cnc3c(NCc4ccncc4)nccn23)cc1 [Compound 5] | 1 to 20 |
| Oc1cccc(-c2cnc3c(NCc4ccncc4)nccn23)c1 [Compound 6] | 1 to 20 |
| COc1ccc(-c2cnc3c(NCc4cccnc4)nccn23)cc1OC [Compound 7] | 1 to 20 |
| NS(=O)(=O)c1ccc(CNc2nccn3c(-c4ccc5c(c4)OCO5)cnc23)cc1 [Compound 8] | 1 to 20 |
| COc1ccc(-c2cnc3c(NCc4ccc(S(N)(=O)=O)cc4)nccn23)cc1OC [Compound 9] | < 1 |
| NS(=O)(=O)c1ccc(CNc2nccn3c(-c4ccc(F)c(Cl)c4)cnc23)cc1 [Compound 10] | 1 to 20 |
| NS(=O)(=O)c1ccc(CNc2nccn3c(-c4ccc(F)cc4)cnc23)cc1 [Compound 11] | 1 to 20 |
| COc1cccc(-c2cnc3c(NCc4ccc(S(N)(=O)=O)cc4)nccn23)c1 [Compound 12] | 1 to 20 |
| COC(=O)c1ccc(CNc2nccn3c(-c4ccc(OC)c(OC)c4)cnc23)cc1 [Compound 13] | 1 to 20 |
| COc1ccc(-c2cnc3c(NCc4ccccc4)nccn23)cc1OC [Compound 14] | 1 to 20 |
| NS(=O)(=O)c1ccc(CNc2nccn3c(-c4ccc(OC(F)(F)F)cc4)cnc23)cc1 [Compound 15] | > 20 |
| COc1ccc(-c2cnc3c(NCc4ccc(S(N)(=O)=O)cc4)nccn23)cc1 [Compound 16] | 1 to 20 |
| COc1ccc(-c2cnc3c(NCCc4ccc(S(N)(=O)=O)cc4)nccn23)cc1OC [Compound 17] | 1 to 20 |
| CC(=O)c1cccc(-c2cnc3c(NCc4ccc(S(N)(=O)=O)cc4)nccn23)c1 [Compound 18] | 1 to 20 |
| COc1ccc(-c2cnc3c(NCc4ccc(S(C)(=O)=O)cc4)nccn23)cc1OC [Compound 19] | 1 to 20 |
| COc1cc(-c2cnc3c(NCc4ccc(S(N)(=O)=O)cc4)nccn23)ccc1O [Compound 20] | < 1 |
| COc1ccc(-c2cnc3c(NCc4ccc(NS(C)(=O)=O)cc4)nccn23)cc1OC [Compound 22] | 1 to 20 |

| Compound | EC50 [µM] |
| --- | --- |
| COc1ccc(-c2cnc3c(NCc4cnccn4)nccn23)cc1OC [Compound 23] | 1 to 20 |
| Oc1ccc(-c2cnc3c(NCc4ccccc4)nccn23)cc1 [Compound 24] | 1 to 20 |
| NS(=O)(=O)c1ccc(CNc2nccn3c(-c4ccc(O)c(F)c4)cnc23)cc1 [Compound 25] | < 1 |
| COc1ccc(-c2cnc3c(NCCNC(C)=O)nccn23)cc1OC [Compound 26] | 1 to 20 |
| CC(=O)Nc1ccc(-c2cnc3c(NCc4ccc(S(N)(=O)=O)cc4)nccn23)cc1 [Compound 27] | 1 to 20 |
| CS(=O)(=O)Nc1ccc(-c2cnc3c(NCc4ccc(S(N)(=O)=O)cc4)nccn23)cc1 [Compound 28] | > 20 |
| COc1ccc(-c2cnc3c(NCC4CCOCC4)nccn23)cc1OC [Compound 29] | 1 to 20 |
| COc1ccc(-c2cnc3c(NCCCn4ccnc4)nccn23)cc1OC [Compound 30] | > 20 |
| COc1cc(-c2cnc3c(NCc4ccc(S(N)(=O)=O)cc4)nccn23)cc(Cl)c1O [Compound 31] | 1 to 20 |
| CS(=O)(=O)c1ccc(CNc2nccn3c(-c4ccc(O)cc4)cnc23)cc1 [Compound 32] | 1 to 20 |
| Cc1cc(O)ccc1-c1cnc2c(NCc3ccc(S(N)(=O)=O)cc3)nccn12 [Compound 33] | 1 to 20 |
| Oc1ccc(-c2cnc3c(NCc4ccc(Cl)cc4)nccn23)cc1 [Compound 34] | 1 to 20 |
| Cc1cccc(CNc2nccn3c(-c4ccc(O)cc4)cnc23)c1 [Compound 35] | 1 to 20 |
| Cc1ccccc1CNc1nccn2c(-c3ccc(O)cc3)cnc12 [Compound 36] | 1 to 20 |
| Oc1ccc(-c2cnc3c(NCc4ccccc4Cl)nccn23)cc1 [Compound 37] | 1 to 20 |
| Cc1ccc(CNc2nccn3c(-c4ccc(O)cc4)cnc23)cc1 [Compound 38] | 1 to 20 |
| Oc1ccc(-c2cnc3c(NCc4ccc(C(F)(F)F)cc4)nccn23)cc1 [Compound 39] | 1 to 20 |
| COc1ccc(CNc2nccn3c(-c4ccc(O)cc4)cnc23)cc1 [Compound 40] | 1 to 20 |
| Cc1cc(-c2cnc3c(NCc4ccc(S(N)(=O)=O)cc4)nccn23)cc(C)c1O [Compound 41] | 1 to 20 |
| N#Cc1ccc(CNc2nccn3c(-c4ccc(O)cc4)cnc23)cc1 [Compound 42] | 1 to 20 |

| Compound | EC50 [µM] |
| --- | --- |
| COc1ccc(-c2cnc3c(NCCS(N)(=O)=O)nccn23)cc1OC [Compound 43] | > 20 |
| COc1ccc(-c2cnc3c(NCc4cccc(Cl)c4)nccn23)cc1 [Compound 44] | 1 to 20 |
| NS(=O)(=O)c1ccc(CNc2nccn3c(-c4ccc(CO)s4)cnc23)cc1 [Compound 45] | 1 to 20 |
| NS(=O)(=O)c1ccc(CNc2nccn3c(-c4ccc(CO)o4)cnc23)cc1 [Compound 46] | 1 to 20 |
| OCc1ccc(CNc2nccn3c(-c4ccc(O)cc4)cnc23)cc1 [Compound 47] | 1 to 20 |
| NC(=O)c1ccc(CNc2nccn3c(-c4ccc(O)cc4)cnc23)cc1 [Compound 48] | 1 to 20 |
| CNC(=O)c1ccc(CNc2nccn3c(-c4ccc(O)cc4)cnc23)cc1 [Compound 49] | 1 to 20 |
| Nc1ccc(-c2cnc3c(NCc4ccc(S(N)(=O)=O)cc4)nccn23)cc1 [Compound 50] | 1 to 20 |
| N#Cc1cc(-c2cnc3c(NCc4ccc(S(N)(=O)=O)cc4)nccn23)ccc1O [Compound 51] | > 20 |
| O=C(O)c1ccc(CNc2nccn3c(-c4ccc(O)cc4)cnc23)cc1 [Compound 52] | > 20 |
| NS(=O)(=O)c1ccc(CNc2nccn3c(-c4ccc(O)c([N+](=O)[O-])c4)cnc23)cc1 [Compound 54] | 1 to 20 |
| COc1ccc2cc(-c3cnc4c(NCc5ccc(S(N)(=O)=O)cc5)nccn34)ccc2c1 [Compound 55] | 1 to 20 |
| COc1cc(-c2cnc3c(NCc4cccc(S(N)(=O)=O)c4)nccn23)ccc1O [Compound 56] | < 1 |
| NS(=O)(=O)c1cccc(CNc2nccn3c(-c4ccc(O)c(F)c4)cnc23)c1 [Compound 57] | < 1 |
| Oc1ccc(-c2cnc3c(NCc4cccnc4)nccn23)cc1 [Compound 58] | 1 to 20 |
| Oc1ccc(-c2cnc3c(NCc4cccs4)nccn23)cc1 [Compound 59] | 1 to 20 |
| COc1cc(CNc2nccn3c(-c4ccc(O)cc4)cnc23)cc(OC)c1OC [Compound 60] | 1 to 20 |
| Oc1ccc(-c2cnc3c(NCc4ccc5c(c4)OCO5)nccn23)cc1 [Compound 61] | 1 to 20 |

Test system: not listed separately
Assay: cytotoxicity measurement (CC50), Table 13
Type: cell-based
Conditions: human, Huh7 cells

| Compound | CC50 [µM] |
| --- | --- |
| Oc1ccc(-c2cnc3c(NCCc4ccncc4)nccn23)cc1 [Compound 2] | < 35 |
| OCc1ccc(-c2cnc3c(NCCc4ccncc4)nccn23)cc1 [Compound 3] | > 35 |
| CS(=O)(=O)Nc1cccc(-c2cnc3c(NCCc4ccncc4)nccn23)c1 [Compound 4] | > 35 |
| Oc1ccc(-c2cnc3c(NCc4ccncc4)nccn23)cc1 [Compound 5] | > 35 |
| Oc1cccc(-c2cnc3c(NCc4ccncc4)nccn23)c1 [Compound 6] | > 35 |
| COc1ccc(-c2cnc3c(NCc4cccnc4)nccn23)cc1OC [Compound 7] | > 35 |
| NS(=O)(=O)c1ccc(CNc2nccn3c(-c4ccc5c(c4)OCO5)cnc23)cc1 [Compound 8] | < 35 |
| COc1ccc(-c2cnc3c(NCc4ccc(S(N)(=O)=O)cc4)nccn23)cc1OC [Compound 9] | > 35 |
| NS(=O)(=O)c1ccc(CNc2nccn3c(-c4ccc(F)c(Cl)c4)cnc23)cc1 [Compound 10] | > 35 |
| NS(=O)(=O)c1ccc(CNc2nccn3c(-c4ccc(F)cc4)cnc23)cc1 [Compound 11] | > 35 |
| COc1cccc(-c2cnc3c(NCc4ccc(S(N)(=O)=O)cc4)nccn23)c1 [Compound 12] | > 35 |
| COC(=O)c1ccc(CNc2nccn3c(-c4ccc(OC)c(OC)c4)cnc23)cc1 [Compound 13] | < 35 |
| COc1ccc(-c2cnc3c(NCc4ccccc4)nccn23)cc1OC [Compound 14] | > 35 |
| NS(=O)(=O)c1ccc(CNc2nccn3c(-c4ccc(OC(F)(F)F)cc4)cnc23)cc1 [Compound 15] | > 35 |
| COc1ccc(-c2cnc3c(NCc4ccc(S(N)(=O)=O)cc4)nccn23)cc1 [Compound 16] | > 35 |
| COc1ccc(-c2cnc3c(NCCc4ccc(S(N)(=O)=O)cc4)nccn23)cc1OC [Compound 17] | < 35 |
| CC(=O)c1cccc(-c2cnc3c(NCc4ccc(S(N)(=O)=O)cc4)nccn23)c1 [Compound 18] | > 35 |
| COc1ccc(-c2cnc3c(NCc4ccc(S(C)(=O)=O)cc4)nccn23)cc1OC [Compound 19] | > 35 |
| COc1cc(-c2cnc3c(NCc4ccc(S(N)(=O)=O)cc4)nccn23)ccc1O [Compound 20] | < 35 |
| COc1ccc(-c2cnc3c(NCc4ccc(NS(C)(=O)=O)cc4)nccn23)cc1OC [Compound 22] | > 35 |

| Compound | CC50 [µM] |
| --- | --- |
| COc1ccc(-c2cnc3c(NCc4cnccn4)nccn23)cc1OC [Compound 23] | > 35 |
| Oc1ccc(-c2cnc3c(NCc4ccccc4)nccn23)cc1 [Compound 24] | < 35 |
| NS(=O)(=O)c1ccc(CNc2nccn3c(-c4ccc(O)c(F)c4)cnc23)cc1 [Compound 25] | > 35 |
| COc1ccc(-c2cnc3c(NCCNC(C)=O)nccn23)cc1OC [Compound 26] | > 35 |
| CC(=O)Nc1ccc(-c2cnc3c(NCc4ccc(S(N)(=O)=O)cc4)nccn23)cc1 [Compound 27] | > 35 |
| CS(=O)(=O)Nc1ccc(-c2cnc3c(NCc4ccc(S(N)(=O)=O)cc4)nccn23)cc1 [Compound 28] | > 35 |
| COc1ccc(-c2cnc3c(NCC4CCOCC4)nccn23)cc1OC [Compound 29] | < 35 |
| COc1ccc(-c2cnc3c(NCCCn4ccnc4)nccn23)cc1OC [Compound 30] | > 35 |
| COc1cc(-c2cnc3c(NCc4ccc(S(N)(=O)=O)cc4)nccn23)cc(Cl)c1O [Compound 31] | > 35 |
| CS(=O)(=O)c1ccc(CNc2nccn3c(-c4ccc(O)cc4)cnc23)cc1 [Compound 32] | > 35 |
| Cc1cc(O)ccc1-c1cnc2c(NCc3ccc(S(N)(=O)=O)cc3)nccn12 [Compound 33] | > 35 |
| Oc1ccc(-c2cnc3c(NCc4ccc(Cl)cc4)nccn23)cc1 [Compound 34] | < 35 |
| Cc1cccc(CNc2nccn3c(-c4ccc(O)cc4)cnc23)c1 [Compound 35] | < 35 |
| Cc1ccccc1CNc1nccn2c(-c3ccc(O)cc3)cnc12 [Compound 36] | < 35 |
| Oc1ccc(-c2cnc3c(NCc4ccccc4Cl)nccn23)cc1 [Compound 37] | > 35 |
| Cc1ccc(CNc2nccn3c(-c4ccc(O)cc4)cnc23)cc1 [Compound 38] | > 35 |
| Oc1ccc(-c2cnc3c(NCc4ccc(C(F)(F)F)cc4)nccn23)cc1 [Compound 39] | < 35 |
| COc1ccc(CNc2nccn3c(-c4ccc(O)cc4)cnc23)cc1 [Compound 40] | > 35 |
| Cc1cc(-c2cnc3c(NCc4ccc(S(N)(=O)=O)cc4)nccn23)cc(C)c1O [Compound 41] | < 35 |
| N#Cc1ccc(CNc2nccn3c(-c4ccc(O)cc4)cnc23)cc1 [Compound 42] | < 35 |

| Compound | CC50 [µM] |
| --- | --- |
| COc1ccc(-c2cnc3c(NCCS(N)(=O)=O)nccn23)cc1OC [Compound 43] | > 35 |
| COc1ccc(-c2cnc3c(NCc4cccc(Cl)c4)nccn23)cc1 [Compound 44] | < 35 |
| NS(=O)(=O)c1ccc(CNc2nccn3c(-c4ccc(CO)s4)cnc23)cc1 [Compound 45] | > 35 |
| NS(=O)(=O)c1ccc(CNc2nccn3c(-c4ccc(CO)o4)cnc23)cc1 [Compound 46] | > 35 |
| OCc1ccc(CNc2nccn3c(-c4ccc(O)cc4)cnc23)cc1 [Compound 47] | < 35 |
| NC(=O)c1ccc(CNc2nccn3c(-c4ccc(O)cc4)cnc23)cc1 [Compound 48] | > 35 |
| CNC(=O)c1ccc(CNc2nccn3c(-c4ccc(O)cc4)cnc23)cc1 [Compound 49] | < 35 |
| Nc1ccc(-c2cnc3c(NCc4ccc(S(N)(=O)=O)cc4)nccn23)cc1 [Compound 50] | > 35 |
| N#Cc1cc(-c2cnc3c(NCc4ccc(S(N)(=O)=O)cc4)nccn23)ccc1O [Compound 51] | > 35 |
| O=C(O)c1ccc(CNc2nccn3c(-c4ccc(O)cc4)cnc23)cc1 [Compound 52] | > 35 |
| NS(=O)(=O)c1ccc(CNc2nccn3c(-c4ccc(O)c([N+](=O)[O-])c4)cnc23)cc1 [Compound 54] | > 35 |
| COc1ccc2cc(-c3cnc4c(NCc5ccc(S(N)(=O)=O)cc5)nccn34)ccc2c1 [Compound 55] | < 35 |
| COc1cc(-c2cnc3c(NCc4cccc(S(N)(=O)=O)c4)nccn23)ccc1O [Compound 56] | < 35 |
| NS(=O)(=O)c1cccc(CNc2nccn3c(-c4ccc(O)c(F)c4)cnc23)c1 [Compound 57] | > 35 |
| Oc1ccc(-c2cnc3c(NCc4cccnc4)nccn23)cc1 [Compound 58] | < 35 |
| Oc1ccc(-c2cnc3c(NCc4cccs4)nccn23)cc1 [Compound 59] | < 35 |
| COc1cc(CNc2nccn3c(-c4ccc(O)cc4)cnc23)cc(OC)c1OC [Compound 60] | < 35 |
| Oc1ccc(-c2cnc3c(NCc4ccc5c(c4)OCO5)nccn23)cc1 [Compound 61] | < 35 |
